For one assay, the system named is Entamoeba histolytica. The experiment in a line: Antiprotozoal activity against Entamoeba histolytica HM-1:IMSS trophozoites after 48 hrs by MTT/PMS assay. Format: functional, organism-based.
In another assay the test system is Giardia intestinalis. Briefly: Antiprotozoal activity against Giardia lamblia IMSS:0989:1 after 48 hrs by MTT/PMS assay. As to conditions: Giardia duodenalis, IMSS:0989:1, 48 h. In kind it is functional, organism-based.

≈ marks a conversion by molar mass, not a printed value.

Consider `CC1(C)CC[C@]2(CO)CC[C@]3(C)C(=CC[C@@H]4[C@@]5(C)CC[C@H](O)C(C)(C)[C@@H]5CC[C@]43C)[C@@H]2C1` [ERYTHRODIOL], for which the IC50 was determined as 12.7 µg/mL (≈ 28.7 µM) in the assay on Entamoeba histolytica and 29.9 µg/mL (≈ 67.5 µM) in the assay with Giardia intestinalis.

For the molecule `COc1cc(-c2oc3cc(O)cc(O)c3c(=O)c2O[C@@H]2O[C@H](COC(=O)/C=C/c3ccc(O)c(O)c3)[C@H](O)[C@H](O)[C@H]2O)ccc1O`, the half-inhibitory concentration (IC50) in the assay on Entamoeba histolytica was found to be 47.7 µg/mL (≈ 74.5 µM); in the assay with Giardia intestinalis, 15.3 µg/mL (≈ 23.9 µM).

With `O=C(/C=C/c1ccc(O)c(O)c1)OC[C@H]1O[C@@H](Oc2c(-c3ccc(O)cc3)oc3cc(O)cc(O)c3c2=O)[C@H](O)[C@@H](O)[C@H]1O`, the IC50 with Entamoeba histolytica was 30 µg/mL (≈ 49.1 µM); in the assay with Giardia intestinalis, 47 µg/mL (≈ 77 µM).

Regarding `C[C@@H]1O[C@@H](OC[C@H]2O[C@@H](Oc3c(-c4ccc(O)cc4)oc4cc(O)cc(O)c4c3=O)[C@H](O)[C@@H](O)[C@@H]2O)[C@H](O)[C@H](O)[C@H]1O` [NICOTIFLOROSIDE], the results for the IC50 in the assay with Entamoeba histolytica and in the assay on Giardia intestinalis were 30.9 µg/mL (≈ 52 µM) and 22.5 µg/mL (≈ 37.8 µM), respectively.

`O=C(/C=C/c1ccc(O)c(O)c1)OC[C@H]1O[C@@H](Oc2c(-c3ccc(O)c(O)c3)oc3cc(O)cc(O)c3c2=O)[C@H](O)[C@@H](O)[C@@H]1O`: the IC50 stood at 14 µg/mL (≈ 22.3 µM) with Entamoeba histolytica and 105 µg/mL (≈ 167 µM) with Giardia intestinalis.

As to `C=C1CC[C@H]2O[C@@]2(C)CC[C@@H]2[C@@H]1CC2(C)C`, the results for the IC50 in the assay on Entamoeba histolytica and in the assay on Giardia intestinalis were 71.3 µg/mL (≈ 324 µM) and 53.8 µg/mL (≈ 244 µM), respectively.

In the case of `O=c1c(O[C@@H]2O[C@H](CO)[C@@H](O)[C@H](O)[C@H]2O)c(-c2ccc(O)c(O)c2)oc2cc(O)cc(O)c12` [ISOQUERCETIN], the half-maximal inhibitory concentration (IC50) is 14.7 µg/mL (≈ 31.7 µM) with Entamoeba histolytica and 87.3 µg/mL (≈ 188 µM) with Giardia intestinalis.

In the case of `O=c1c(O[C@@H]2O[C@H](CO)[C@@H](O)[C@H](O)[C@H]2O)c(-c2ccc(O)cc2)oc2cc(O)cc(O)c12` [ASTRAGALIN], the IC50 came to 61.2 µg/mL (≈ 136 µM) in the assay with Entamoeba histolytica and 47.5 µg/mL (≈ 106 µM) with Giardia intestinalis.

As to `COc1cc(-c2oc3cc(O)cc(O)c3c(=O)c2O[C@@H]2O[C@H](CO[C@@H]3O[C@@H](C)[C@H](O)[C@@H](O)[C@H]3O)[C@@H](O)[C@H](O)[C@H]2O)ccc1O` [NARCISSIN], the IC50 with Entamoeba histolytica amounted to 17.2 µg/mL (≈ 27.5 µM); in the assay on Giardia intestinalis, 94.7 µg/mL (≈ 152 µM).

On to `C[C@@H]1O[C@@H](OC[C@H]2O[C@@H](Oc3c(-c4ccc(O)c(O)c4)oc4cc(O)cc(O)c4c3=O)[C@H](O)[C@@H](O)[C@@H]2O)[C@H](O)[C@H](O)[C@H]1O` [RUTIN], for which the half-inhibitory concentration (IC50) amounted to 120 µg/mL (≈ 196 µM) in the assay on Entamoeba histolytica and 179 µg/mL (≈ 293 µM) with Giardia intestinalis.

As for `CC[C@H]1CN2CCc3cc(OC)c(OC)cc3[C@@H]2C[C@@H]1C[C@H]1NCCc2cc(OC)c(OC)cc21` [EMETINE], the figures for the IC50 in the assay with Entamoeba histolytica and with Giardia intestinalis were 1.05 µg/mL (≈ 2.18 µM) and 0.41 µg/mL (≈ 0.853 µM), respectively.

Source of the values: ChEMBL document CHEMBL1150849, “Antiprotozoal activity of the constituents of Conyza filaginoides” (J Nat Prod, 2001).
